Source: patent US6893846B2, “Primers for use in detecting beta-lactamases” (priority 1998, dated 2005)
≈ marks a conversion by molar mass, not a printed value. Where two headings read alike, the source gives them in different places.

Assays:
[1] = system: K. pneumoniae 225; test: NCCLS disk diffusion assay; format: cell-based, Klebsiella pneumoniae; conditions: disk diffusion, Kleb 225
[2] = system: P. mirabilis; test: Agar dilution MIC, South African isolates; format: cell-based, Proteus mirabilis; conditions: 4 strains, tzp with tazobactam 4 μg/ml
In short: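 Clinical isolates from South African hospitals, intermediate or resistant to cefotaxime or ceftazidime and lacking inducible beta-lactamases, were tested by NCCLS M7-T2 agar dilution. Quality-control strains E. coli ATCC 25922 and 35218, P. aeruginosa ATCC 27853 and S. aureus ATCC 29213 were run alongside. Results were interpreted by NCCLS criteria.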

[3] = system: E. aerogenes; format: cell-based, Enterobacter aerogenes
Method: Antibiotic susceptibilities were determined by standard disk-diffusion (NCCLS Standard M2-A6) and agar-dilution (NCCLS Standard M7-A4) procedures. Disks were obtained from Becton Dickinson Microbiology Systems (Cockeysville, Md.). […] Throughout this study, results were interpreted using NCCLS criteria for disk diffusion (NCCLS M2-A6) and broth dilution (NCCLS M7-A4).

[4] = system: E. aerogenes; test: Double-disk potentiation test; format: cell-based, Enterobacter aerogenes; conditions: all the E. aerogenes strains selected; potentiation by clavulanic acid
Excerpt: This test described by Jarlier et al., Rev. Infect. Dis.

[5] = system: E. coli HB101 transformant (17 kb plasmid); conditions: disk diffusion, Tr (17 kb) = transformant E. coli HB101
[6] = system: K. pneumoniae 225; conditions: test drug disk around amoxicillin-clavulanate disk
[7] = target: beta-lactamases in sonic extracts of K. pneumoniae (Escherichia coli, UniProt P62593); conditions: 0.75 μg/ml cefotaxime
[8] = target: beta-lactamases in sonic extracts of K. pneumoniae (Klebsiella pneumoniae, UniProt P0AD64); conditions: Kpn1, beta-lactamase pI 7.6 (SHV-1); 0.75 μg/ml cefotaxime
[9] = target: beta-lactamases in sonic extracts of K. pneumoniae (Klebsiella pneumoniae, UniProt P0AD64, E235K/G234S); conditions: Kpn2, beta-lactamase pI 8.2 (SHV-5); 0.75 μg/ml cefotaxime
[10] = system: beta-lactamases in sonic extracts of K. pneumoniae; conditions: 0.75 μg/ml cefotaxime
[11] = target: beta-lactamases in sonic extracts of E. coli (Escherichia coli, UniProt P62593); test: Isoelectric focusing overlay: cefotaxime hydrolysis and inhibitors; conditions: 0.75 μg/ml cefotaxime
[12] = system: beta-lactamases in sonic extracts of E. coli; test: as above; conditions: 0.75 μg/ml cefotaxime
[13] = target: single beta-lactamase in K. pneumoniae cell extracts (Escherichia coli, UniProt P62593, E102K/R162S); test: Spectrophotometric hydrolysis assay on crude beta-lactamase extracts; conditions: K. pneumoniae Pit 16 extract, beta-lactamase pI 5.6; 100 μM substrate
[14] = target: single beta-lactamase in K. pneumoniae cell extracts (Klebsiella pneumoniae, UniProt P0AD64, E235K/G234S); test: as above; conditions: K. pneumoniae Pit 82 extract, beta-lactamase pI 8.2; 100 μM substrate
[15] = target: single beta-lactamase in K. pneumoniae cell extracts (Klebsiella pneumoniae, UniProt P0AD64, G234S); test: as above; conditions: K. pneumoniae Pit 100 extract, beta-lactamase pI 7.6; 100 μM substrate
[16] = target: single beta-lactamase in E. coli cell extracts (Escherichia coli, UniProt P62593, E102K/R162S); test: as above; conditions: E. coli Pit 64 extract, beta-lactamase pI 5.6; 100 μM substrate
[17] = system: beta-lactamases in sonic extracts of E. aerogenes; test: Isoelectric focusing overlay: cefotaxime hydrolysis, inhibitors, induction; conditions: 0.75 μg/ml cefotaxime

## CO/N=C(\C(=O)N[C@@H]1C(=O)N2C(C(=O)O)=C(COC(C)=O)CS[C@H]12)c1csc(N)n1 [cefotaxime]
[1]
  Zone Size: 15 mm
[2]
  MIC range: 0.25 to 0.5 µg/mL
[3]; 1 E. aerogenes strain with Bush group 1 and group 2be (SHV-3) enzymes
  MIC range: 1 µg/mL (≈ 2.2 µM)
[3]; 1 E. aerogenes strain with Bush group 1 and group 2be (SHV-5) enzymes
  MIC range: 1 to 2 µg/mL
[3]; 29 E. aerogenes strains with Bush group 1 and group 2be (SHV-4) enzymes
  MIC range: 1 to 2 µg/mL
[3]; all E. aerogenes strains
  susceptibility by MIC: decreased susceptibility
[4]
  double disk test: positive
[5]
  Zone Size: 34 mm
[6]
  clavulanate double-disk potentiation test: positive
[7]; Kpn2, beta-lactamase pI 5.4 (TEM-1)
  ctx hydrolysis: No
[7]; Kpn3, beta-lactamase pI 5.4 (TEM-1)
  ctx hydrolysis: No
[8]
  ctx hydrolysis: No
[9]
  ctx hydrolysis: Yes
[10]; Kpn1, beta-lactamase pI 5.6 (TEM-10 or 26)
  ctx hydrolysis: Yes
[10]; Kpn2, beta-lactamase pI 7.6 (SHV-2 or 8)
  ctx hydrolysis: Yes
[10]; Kpn3, beta-lactamase pI 8.0 (AmpC)
  ctx hydrolysis: Yes
[11]; Ec1, beta-lactamase pI 5.4 (TEM-1)
  ctx hydrolysis: No
[11]; Ec2, beta-lactamase pI 5.4 (TEM-1)
  ctx hydrolysis: No
[12]; Ec1, beta-lactamase pI 5.6 (TEM-10 or 26)
  ctx hydrolysis: Yes
[12]; Ec2, beta-lactamase pI 7.6 (SHV-2 or 8)
  ctx hydrolysis: Yes
[13]
  Hydrolysis: 4 nmol of substrate hydrolyzed/m
[14]
  Hydrolysis: 11 nmol of substrate hydrolyzed/m
[15]
  Hydrolysis: 11 nmol of substrate hydrolyzed/m
[16]
  Hydrolysis: 1 nmol of substrate hydrolyzed/m
[17]; SHV-3 strain (1), Bush group 1 enzyme pI 8.3
  Ctx Hydrolysis: no
[17]; SHV-3 strain (1), Bush group 2be enzyme pI 6.9
  Ctx Hydrolysis: yes
[17]; SHV-4 strains (29), Bush group 1 enzyme pI 8.3
  Ctx Hydrolysis: no
[17]; SHV-4 strains (29), Bush group 2be enzyme pI 7.8
  Ctx Hydrolysis: yes
[17]; SHV-5 strain (1), Bush group 1 enzyme pI 8.3
  Ctx Hydrolysis: no
[17]; SHV-5 strain (1), Bush group 2Be enzyme pI 8.0
  Ctx Hydrolysis: yes
